Results: US20230242558A1, “NICOTINATE AND NICOTINAMIDE RIBOSIDE-BASED COMPOUNDS AND DERIVATIVES THEREOF” (New Frontier Bio, Inc., priority 2022, published 2023)

System: HaCaT cells
Assay: NAD assay in HaCaT cells, total NAD level normalized to protein
Assay type: cell-based
Details: 4 hours incubation, concentration not given
Description: The biological activity of certain compounds disclosed herein was determined using the following method: • 1. Plate HaCaT cells in 12-well tissue culture plates at a density of 200,000 cells per well in 0.75 mL DMEM growth medium. Incubate overnight at 37° C. in a incubator at 5% CO2. • 2. Next day, prepare dilutions of each compound in growth medium at the desired final concentration. • 3. Incubate cells as above for 4 hours. • 4. After the incubation, wash cell monolayers in each well with 200 uL PBS and add 200 uL 0.25% Trypsin. Let cells lift for 15 minutes. • 5. Once cells are lifted, collect cells into sterile 1.5 mL Eppendorf tube containing 400 uL of DMEM w/2% HI FBS. • 6. Centrifuge tubes for 500×g for 5 min. • 7. Aspirate supernatant and wash cells with 200 uL of cold PBS. • 8. Centrifuge tubes for 500×g for 5 min. • 9. Aspirate supernatant and add 400 μL of cold extraction buffer (provided in the NAD assay kit) and vortex each tube for 10 seconds. • 10. Centrifuge samples at 13,000×g for 10 min to remove insoluble material. • 11. Use a small aliquot of extract to determine total protein concentration by BCA protein assay kit. • 12. Deproteinize samples by filtering them through a 10 kDa cut-off spin filter. Centrifuge at 13,000×g for 10 min. • 13. After cell lysate is filtered, load 25 uL of samples to 96 well plate for NAD assay. • 14. Add 25 uL of extraction buffer to each well with samples to dilute them 1:2. Add 50 uL of standards to appropriate wells. • 15. Set up master reaction mix of cycling buffer and NAD cycling enzyme mix. Add 100 uL of mix to each well and incubate for […]. • 16. Add 10 uL of developer into each well. • 17. Let plate incubate at room temperature for 1 hr. • 18. Stop the reaction by adding 10 uL of stop solution into each well and mix well. • 19. Measure absorbance at 450 nm using plate reader. • 20. Plot standard curve and normalize data to determine total NAD level.

| Structure (SMILES) | NAD+ level [pmol/mg protein] |
| --- | --- |
| CC(C)Cc1ccc(C(C)C(=O)NCCNC(=O)c2cccnc2)cc1 (centres unmarked) | 697 |
| COC(=O)c1ccc[n+]([C@@H]2O[C@H](COC(C)=O)[C@@H](OC(C)=O)[C@H]2OC(C)=O)c1 | 323 |
| CC(=O)OC[C@H]1O[C@@H]([n+]2cccc(C(=O)Sc3ccccc3)c2)[C@H](OC(C)=O)[C@@H]1OC(C)=O | <1 |
| O=C(Sc1ccccc1)c1ccc[n+]([C@@H]2O[C@H](CO)[C@@H](O)[C@H]2O)c1 | <1 |
| CCOC(=O)c1ccc[n+]([C@@H]2O[C@H](COC(C)=O)[C@@H](OC(C)=O)[C@H]2OC(C)=O)c1 | 674 |
| CC(C)(C)OC(=O)c1ccc[n+]([C@@H]2O[C@H](COP(=O)([O-])O)[C@@H](O)[C@H]2O)c1 | <1 |
| CC(C)(C)OC(=O)c1ccc[n+]([C@@H]2O[C@H](CO)[C@@H](O)[C@H]2O)c1 | 1162 |
| O=C(Oc1ccc(/C=C/c2cc(OC(=O)c3cccnc3)cc(OC(=O)c3cccnc3)c2)cc1)c1cccnc1 | 616 |
| CC1CCC(C(C)C)C(OC(=O)c2cccnc2)C1 (centres unmarked) | <1 |
| CCC(=O)OC[C@H]1O[C@@H]([n+]2cccc(C(=O)O)c2)[C@H](OC(=O)CC)[C@@H]1OC(=O)CC | 667 |
| CC(C)(C)OC(=O)CCCCCCCCCCCCCCCCC(=O)NCCNC(=O)c1cccnc1 | 460 |
| [2H]c1nc([2H])c(C(=O)NCCCCCC[P+](c2ccccc2)(c2ccccc2)c2ccccc2)c([2H])c1[2H] | 435 |
| O=C(Cc1ccccc1Nc1c(Cl)cccc1Cl)NCCNC(=O)c1cccnc1 | 338 |
| CC(=O)OC[C@H]1O[C@@H]([n+]2cccc(C(=O)OCc3ccccc3)c2)[C@H](OC(C)=O)[C@@H]1OC(C)=O | 426 |
| O=C(O)c1ccc[n+]([C@@H]2O[C@H](COC(=O)c3cccnc3)[C@@H](OC(=O)c3cccnc3)[C@H]2OC(=O)c2cccnc2)c1 | 656 |
| O=C(OCc1ccccc1)c1ccc[n+]([C@@H]2O[C@H](CO)[C@@H](O)[C@H]2O)c1 | 463 |
| CC(=O)OC[C@H]1O[C@@H]([n+]2cccc(C(=O)O)c2)[C@H](OC(C)=O)[C@@H]1OC(C)=O | 311 |
| CC(=O)OC[C@H]1O[C@@H]([n+]2cccc(C(=O)OC(C)(C)C)c2)[C@H](OC(C)=O)[C@@H]1OC(C)=O | <1 |
| O=C(OCCO)c1cccnc1 | 501 |

| Structure (SMILES) | NAD+ level [pmol/mg protein] |
| --- | --- |
| NCCNC(=O)c1cccnc1 | 587 |
| O=C(NCCNCCC[P+](c1ccccc1)(c1ccccc1)c1ccccc1)c1cccnc1 | 391 |
| O=C(NCCNCCCCCC[P+](c1ccccc1)(c1ccccc1)c1ccccc1)c1cccnc1 | 378 |
| O=C(Oc1ccc2c(c1)oc(=O)c1cc(O)ccc12)c1cccnc1 | 681 |
| O=C(OCCCCCC[P+](c1ccccc1)(c1ccccc1)c1ccccc1)c1cccnc1 | <1 |
| O=C(OCCOCCC[P+](c1ccccc1)(c1ccccc1)c1ccccc1)c1cccnc1 | <1 |
| O=C(OCCC[P+](c1ccccc1)(c1ccccc1)c1ccccc1)c1cccnc1 | 576 |
| O=C(NC[P+](c1ccccc1)(c1ccccc1)c1ccccc1)c1cccnc1 | 521 |
| O=C(OC[P+](c1ccccc1)(c1ccccc1)c1ccccc1)c1cccnc1 | 319 |
| O=C(NCC[P+](c1ccccc1)(c1ccccc1)c1ccccc1)c1cccnc1 | 466 |
| O=C(NCCC[P+](c1ccccc1)(c1ccccc1)c1ccccc1)c1cccnc1 | 560 |
| O=C(CCCCC[P+](c1ccccc1)(c1ccccc1)c1ccccc1)NCCNC(=O)c1cccnc1 | 607 |
| CCCCCCCCCCCCCCOC(=O)c1ccc[n+]([C@@H]2O[C@H](CO)[C@@H](O)[C@H]2O)c1 | <1 |
| CC1=C(/C=C/C(C)=C/C=C/C(C)=C/C(=O)NCCNC(=O)c2cccnc2)C(C)(C)CCC1 | 815 |
| CC(=O)OC[C@H]1O[C@@H]([n+]2cccc(C(=O)NCCCCCC[P+](c3ccccc3)(c3ccccc3)c3ccccc3)c2)[C@H](OC(C)=O)[C@@H]1OC(C)=O | 565 |
| CC(=O)OC[C@H]1O[C@@H]([n+]2cccc(C(=O)NCCNC(=O)c3ccc[n+]([C@@H]4O[C@H](COC(C)=O)[C@@H](OC(C)=O)[C@H]4OC(C)=O)c3)c2)[C@H](OC(C)=O)[C@@H]1OC(C)=O | 354 |
| CC(=O)OC[C@H]1O[C@@H]([n+]2cccc(C(=O)NCCNC(=O)CCCCC[P+](c3ccccc3)(c3ccccc3)c3ccccc3)c2)[C@H](OC(C)=O)[C@@H]1OC(C)=O | 311 |
| CC(=O)OC[C@H]1O[C@@H]([n+]2cccc(C(=O)NCCC[P+](c3ccccc3)(c3ccccc3)c3ccccc3)c2)[C@H](OC(C)=O)[C@@H]1OC(C)=O | 292 |
| O=C(NCCCCCC[P+](c1ccccc1)(c1ccccc1)c1ccccc1)c1ccc[n+]([C@@H]2O[C@H](CO)[C@@H](O)[C@H]2O)c1 | 285 |

| Structure (SMILES) | NAD+ level [pmol/mg protein] |
| --- | --- |
| CC(C)Cc1ccc(C(C)C(=O)OCCOC(=O)c2cccnc2)cc1 (centres unmarked) | 539 |
| CCCCCc1cc(OC(=O)c2cccnc2)c2c(c1)OC(C)(CCC=C(C)C)C=C2 (centres unmarked) | 375 |
| O=C(OCCOCCCCCC[P+](c1ccccc1)(c1ccccc1)c1ccccc1)c1cccnc1 | 230 |
| O=C(CCCCC[P+](c1ccccc1)(c1ccccc1)c1ccccc1)NCCOC(=O)c1cccnc1 | <1 |
| O=C(NCc1ccccc1)c1ccc[n+]([C@@H]2O[C@H](CO)[C@@H](O)[C@H]2O)c1 | 274 |
| O=C(CCCC[P+](c1ccccc1)(c1ccccc1)c1ccccc1)NCCNC(=O)c1cccnc1 | 495 |
| O=C(CCCC[P+](c1ccccc1)(c1ccccc1)c1ccccc1)NCCOC(=O)c1cccnc1 | 508 |
| O=C(OCCOCCCCCCCCC[P+](c1ccccc1)(c1ccccc1)c1ccccc1)c1cccnc1 | <1 |
| O=C(NCCNCCCCCCCCC[P+](c1ccccc1)(c1ccccc1)c1ccccc1)c1cccnc1 | 395 |
| CCCCCCCCCCCCCCNC(=O)c1ccc[n+]([C@@H]2O[C@H](CO)[C@@H](O)[C@H]2O)c1 | <1 |
| CC(=O)OC[C@H]1O[C@@H]([n+]2cccc(C(=O)OCCOC(=O)c3ccc[n+]([C@@H]4O[C@H](COC(C)=O)[C@@H](OC(C)=O)[C@H]4OC(C)=O)c3)c2)[C@H](OC(C)=O)[C@@H]1OC(C)=O | 655 |
| CC(=O)OC[C@H]1O[C@@H]([n+]2cccc(C(=O)OC3CC(C)CCC3C(C)C)c2)[C@H](OC(C)=O)[C@@H]1OC(C)=O (some centres unmarked) | 258 |
| CC1CCC(C(C)C)C(OC(=O)c2ccc[n+]([C@@H]3O[C@H](CO)[C@@H](O)[C@H]3O)c2)C1 (some centres unmarked) | 464 |
| CC(=O)Oc1cc(/C=C/c2ccc(OC(=O)c3cccnc3)cc2)cc(OC(C)=O)c1 | 122 |
| O=C(Oc1ccc(/C=C/c2cc(O)cc(O)c2)cc1)c1ccc[n+]([C@@H]2O[C@H](CO)[C@@H](O)[C@H]2O)c1 | 94 |
| CC(=O)OC[C@H]1O[C@@H]([n+]2cccc(C(=O)Oc3ccc(/C=C/c4cc(OC(C)=O)cc(OC(C)=O)c4)cc3)c2)[C@H](OC(C)=O)[C@@H]1OC(C)=O | <1 |
| CC1CCC(C(C)C)C(OC(=O)c2ccc[n+]([C@@H]3O[C@H](COP(=O)([O-])O)[C@@H](O)[C@H]3O)c2)C1 (some centres unmarked) | 472 |
| O=C(Oc1cc(OC(=O)c2cccnc2)c2c(=O)c(O)c(-c3ccc(OC(=O)c4cccnc4)c(OC(=O)c4cccnc4)c3)oc2c1)c1cccnc1 | 328 |
